For 54 molecules, IC50 results are on record in PubChem BioAssay AID504419 (The Scripps Research Institute Molecular Screening Center, 2011).

Test [1] deals with NS3h 1b (con1). The test is described as follows: NS3 helicase inhibitors across HCV genotypes, late-stage follow-up, selectivity assay for HCV NS3 helicase inhibitor project, biochemical, real-time fluorescence, genotypes 2a and 1b, Set 2 (AID 504419). The note with it: Recombinant NS3 helicase, real-time fluorescence unwinding.
The target of test [2] is NS3h 2a (JFH1). The test is described as above. The note with it: Recombinant NS3 helicase, real-time fluorescence unwinding.

By IC50 is commonly meant the point on the concentration scale where inhibition reaches its midpoint.

Molecules are shown by their SMILES. Values joined by “and” are separate entries in the source; they are usually repeats but may differ in a detail not shown here. Equal values may be shown once. Active and inactive are the calls of the source. No rule for the calls is given here.

On to `Cc1ccc2nc(-c3ccc4nc(-c5ccc(NC(=O)c6ccc(N)cc6)cc5)sc4c3)sc2c1S(=O)(=O)O`, for which the results for the IC50 in test [1] and in test [2] were 7.85 µM and 4.39 µM, respectively.
As to `Cc1ccc2nc(-c3ccc(NC(=O)c4ccc(F)cc4)cc3)sc2c1S(=O)(=O)O`, the IC50 in test [1] and in test [2] was > 100 µM (inactive) in each case.
Consider `NC(=S)N/N=C/c1ccc(C23CC4CC(CC(C4)C2)C3)cc1`, for which the IC50 in test [1] and in test [2] was > 100 µM (inactive) each time.
In the case of `O=c1c(O)cccc2cc(O)c(O)c(O)c12`, the IC50 in test [1] and in test [2] was > 100 µM (inactive) in each case.
For the molecule `Cc1ccc(C(=O)Nc2ccc(-c3nc4ccc(-c5nc6ccc(C)c(S(=O)(=O)O)c6s5)cc4s3)cc2)cc1`, the IC50 is 3.69 µM in test [1] and 3.35 µM in test [2].
Regarding `Cc1ccc2nc(-c3ccc4nc(-c5ccc(NC(=O)c6ccc7nc(-c8ccc(NC(=O)OCC9c%10ccccc%10-c%10ccccc%109)cc8)sc7c6)cc5)sc4c3)sc2c1S(=O)(=O)O`, the IC50 in test [2] was 2.09 µM and > 28 µM (inactive).
For `Cc1ccc(NC(=O)C2=C(c3ccccc3)S(=O)(=O)CCS2(=O)=O)cc1`, the IC50 in test [1] and in test [2] was > 100 µM (inactive) throughout.
In the case of `Cc1ccc2nc(-c3ccc4nc(-c5ccc(NC(=O)c6ccc7ccccc7c6)cc5)sc4c3)sc2c1S(=O)(=O)O`, the figures for the IC50 in test [1] and in test [2] were 2.93 µM and 1.71 µM, respectively.
As for `Cc1cc(N2C(=O)C(O)=C(C(=O)c3ccc(C)o3)C2c2cccc(Cl)c2)no1` (configuration not stated), the IC50 in test [1] and in test [2] was > 100 µM (inactive) in each case.
As for `O=C(Nc1nc(-c2ccco2)c(-c2ccco2)s1)C1CCC1`, the IC50 is > 16.4 µM (inactive) in test [1] and > 100 µM (inactive) in test [2].
Turning to `N#C/C(=C\c1ccc(O)c(O)c1)S(=O)(=O)c1ccccc1`, the IC50 in test [1] and in test [2] was > 100 µM (inactive) in each case.
Take `O=C(c1ccc2nc(-c3ccco3)c(-c3ccco3)nc2c1)N1CCN(c2ccccc2)CC1`: the IC50 in test [1] and in test [2] was > 100 µM (inactive) each time.
`CCOc1ccc(N2C(=O)C3Sc4[nH]c(=O)sc4C(/C=C/c4ccccc4)C3C2=O)cc1` (configuration not stated): the IC50 in test [1] and in test [2] was > 100 µM (inactive) throughout.
As for `Cc1ccc2nc(-c3ccc(NC(=O)c4ccc5ncoc5c4)cc3)sc2c1`, the IC50 entry in test [1] and in test [2] was “inactive” in each case.
As for `CCOc1ccc(C2C(C(=O)c3ccc(C)o3)=C(O)C(=O)N2c2cc(C)on2)cc1` (configuration not stated), the IC50 in test [1] and in test [2] was > 100 µM (inactive) throughout.
`Cc1ccc2nc(-c3ccc4nc(-c5ccc(NC(=O)c6ccc(Cl)cc6)cc5)sc4c3)sc2c1S(=O)(=O)O`: the IC50 in test [1] was 4.31 µM; in test [2] it was 2.66 µM.
With `COc1c(N2CCN(C(=S)NCc3ccccc3)C(C)C2)c(F)cc2c(=O)c(C(=O)O)cn(C3CC3)c12` (configuration not stated), the IC50 in test [1] and in test [2] was > 100 µM (inactive) each time.
Turning to `COc1ccc([C@H]2C[C@@H](c3ccccc3)Oc3cc(OC)c(OC)c(OC)c32)cc1`, the IC50 in test [1] and in test [2] was > 100 µM (inactive) each time.
Regarding `Cc1ccc2nc(-c3ccc4nc(NC(=O)c5ccc6ncoc6c5)sc4c3)sc2c1`, the IC50 result in test [1] and in test [2] was “inactive” each time.
For the molecule `C=C1c2cccc(O)c2C(O)=C2C(=O)[C@]3(O)C(O)=C(C(N)=O)C(=O)[C@@H](N(C)C)[C@@H]3[C@@H](O)[C@H]12`, in test [1], the IC50 result is “inactive”. For the same molecule, the IC50 in test [2] is > 100 µM (inactive).
On to `Cc1ccc(C(=O)C2=C(O)C(=O)N(Cc3ccccc3)C2c2cc(Cl)cc(Cl)c2)o1` (configuration not stated), for which the IC50 in test [1] and in test [2] was > 100 µM (inactive) in each case.
As to `Cc1ccc2nc(-c3ccc4nc(-c5ccc(NC(=O)c6ccc7nc(-c8ccc(N)cc8)sc7c6)cc5)sc4c3)sc2c1S(=O)(=O)O`, the IC50 in test [1] was 7.57 µM; in test [2] it was 2.52 µM.
On the same counts, the results for `Nc1c(C(=O)Nc2ccccc2F)sc2nc(-c3ccco3)ccc12` are > 100 µM (inactive) and > 100 µM (inactive).
For the molecule `Cc1ccc2nc(-c3ccc4nc(-c5ccc(NC(=O)c6ccccc6)cc5)sc4c3)sc2c1S(=O)(=O)O`, the IC50 result in test [1] was “inactive”. In addition, the IC50 in test [2] was 4.07 µM.
Consider `COc1cc(Br)cc(C2C(C(=O)c3ccc(C)o3)=C(O)C(=O)N2Cc2ccco2)c1OC` (configuration not stated), for which the IC50 in test [1] and in test [2] was > 100 µM (inactive) in each case.
`Cc1ccc2nc(-c3ccc4nc(-c5ccc(NC(=O)c6ccc(C(C)(C)C)cc6)cc5)sc4c3)sc2c1S(=O)(=O)O`: the IC50 result in test [1] is “inactive”. The IC50 in test [2] was 4.96 µM.
On to `Cc1ccc2nc(-c3ccc(NC(=O)c4ccc(F)cc4)cc3)sc2c1`, for which the IC50 in test [1] and in test [2] was > 100 µM (inactive) each time.
As to `O=C1OC(c2ccc(F)cc2)=C/C1=C/c1ccc([N+](=O)[O-])o1`, the IC50 in test [1] and in test [2] was > 100 µM (inactive) throughout.
For the molecule `Cc1ccc(NC(=O)Nc2ccc(-c3nc4ccc(-c5nc6ccc(C)c(S(=O)(=O)O)c6s5)cc4s3)cc2)cc1`, the IC50 in test [1] was 5.93 µM; in test [2] it was 3.21 µM.
For `Cc1ccc2nc(-c3ccc(NC(=S)Nc4ccccc4Br)cc3)sc2c1`, the results for the IC50 in test [1] and in test [2] were > 24 µM (inactive) and > 100 µM (inactive), respectively.
Consider `COC(=O)c1ccc(C(=O)Nc2ccc(-c3nc4ccc(-c5nc6ccc(C)c(S(=O)(=O)O)c6s5)cc4s3)cc2)cc1`, for which the IC50 was 6.85 µM in test [1] and 4.98 µM in test [2].
As to `CN(C)c1ccc(O)c2c1C[C@H]1C[C@H]3[C@H](N(C)C)C(=O)C(C(N)=O)=C(O)[C@@]3(O)C(=O)C1=C2O`, the IC50 result in test [1] was “inactive”. Moreover, the IC50 in test [2] was > 100 µM (inactive).
As for `CCc1cc2c(=O)n(Cc3ccco3)c(SCc3c(C)noc3C)nc2s1`, the IC50 in test [1] and in test [2] was > 100 µM (inactive) each time.
As for `COc1cc(Br)cc(C2C(C(=O)c3ccc(C)o3)=C(O)C(=O)N2c2cc(C)on2)c1OC` (configuration not stated), the IC50 in test [1] and in test [2] was > 100 µM (inactive) each time.
For `COc1cc(OC)c2c(-c3ccccc3)cc(=O)oc2c1[C@H](CCN1CCN(c2ccccc2)CC1)c1ccc(N(C)C)cc1`, the figures for the IC50 in test [1] and in test [2] were > 33.2 µM (inactive) and > 80.3 µM (inactive), respectively.
As to `Cc1ccc2nc(-c3ccc4nc(-c5ccc(N)cc5)sc4c3)sc2c1S(=O)(=O)O`, the IC50 entry in test [1] and in test [2] was “inactive” in each case.
As for `COc1cc2oc(=O)cc(-c3ccc(-c4ccc(CO)cc4)cc3)c2c(OC)c1OC`, the IC50 in test [1] and in test [2] was > 100 µM (inactive) throughout.
On to `Cc1cc(N2C(=O)C(O)=C(C(=O)c3ccc(C)o3)C2c2cc(Cl)cc(Cl)c2)no1` (configuration not stated), for which the IC50 in test [1] and in test [2] was > 100 µM (inactive) in each case.
Turning to `COc1cc2oc(=O)cc(-c3ccc(-c4ccc(NC(C)=O)cc4)cc3)c2c(OC)c1OC`, the IC50 in test [1] and in test [2] was > 100 µM (inactive) throughout.
With `COc1ccc(C(=O)Nc2ccc(-c3nc4ccc(-c5nc6ccc(C)c(S(=O)(=O)O)c6s5)cc4s3)cc2)cc1`, the results for the IC50 in test [1] and in test [2] were 8.41 µM and 5.7 µM, respectively.
Regarding `NS(=O)(=O)c1ccc2nc(NC(=O)c3ccc4ncsc4c3)sc2c1`, the IC50 entry in test [1] was “inactive”. Besides, the IC50 in test [2] is > 10.9 µM (inactive).
On the same counts, the results for `CC1CCCCC1NC(=O)COC(=O)c1c2c(nc3ccccc13)/C(=C/c1ccco1)CC2` (configuration not stated) are “inactive” and > 100 µM (inactive).
Take `COc1cc(OC)c2ccc(=O)oc2c1[C@H](CCN1CCN(c2ccccc2)CC1)c1ccc(N(C)C)cc1`: the IC50 in test [1] and in test [2] was > 100 µM (inactive) in each case.
In the case of `COc1ccc(S(=O)(=O)Nc2ccc(-c3nc4ccc(-c5nc6ccc(C)c(S(=O)(=O)O)c6s5)cc4s3)cc2)cc1`, the IC50 entry in test [1] and in test [2] was “inactive” each time.
Take `Cc1ccc2nc(-c3ccc4nc(-c5ccc(NC(=O)c6ccc(N(C)C)cc6)cc5)sc4c3)sc2c1S(=O)(=O)O`: the IC50 result in test [1] is “inactive”. Besides, the IC50 in test [2] was 6.15 µM.
Take `COc1cc(Br)cc(C2C(C(=O)c3ccc(C)o3)=C(O)C(=O)N2Cc2ccccc2)c1OC` (configuration not stated): the IC50 in test [1] and in test [2] was > 100 µM (inactive) throughout.
As to `CC(=O)c1ccc(-c2cccc(-c3cc(=O)oc4ccc(C(C)(C)C)cc34)c2)cc1`, the IC50 in test [1] and in test [2] was > 100 µM (inactive) throughout.
As to `Cc1ccc2nc(-c3ccc4nc(-c5ccc(NC(=O)c6ccc(NC(=O)OCC7c8ccccc8-c8ccccc87)cc6)cc5)sc4c3)sc2c1S(=O)(=O)O`, the IC50 was 6.56 µM in test [1] and 6.04 µM in test [2].
With `Cc1ccc2nc(-c3ccc4nc(-c5ccc(NC(=O)c6ccc(C(F)(F)F)cc6)cc5)sc4c3)sc2c1S(=O)(=O)O`, the IC50 in test [1] is 1.76 µM; in test [2], 2.51 µM.
Take `CCN(CC)S(=O)(=O)c1cccc(C(=O)N/N=C/c2ccc(O)c(O)c2O)c1`: the IC50 in test [1] and in test [2] was > 100 µM (inactive) in each case.
For `C/C(=N\NC(N)=S)c1cc(-c2ccccc2)c(-c2ccccc2)s1`, the IC50 in test [1] and in test [2] was > 100 µM (inactive) in each case.
For the molecule `Cc1ccc(/C=C/C(=O)Nc2ccc([N+](=O)[O-])c(NC(=O)/C=C/c3ccc(C)o3)c2)o1`, the IC50 in test [1] was > 38.1 µM (inactive); in test [2] it was > 100 µM (inactive).
With `COc1ccc(N=Nc2ccc(O)c3ncccc23)c(S(=O)(=O)N(C)C)c1`, the IC50 in test [1] and in test [2] was > 100 µM (inactive) throughout.
For the molecule `CCOc1ccc(C2C(C(=O)c3ccc(C)o3)=C(O)C(=O)N2Cc2ccco2)cc1` (configuration not stated), the IC50 in test [1] and in test [2] was > 100 µM (inactive) in each case.
